This note sets out measurements from PubChem BioAssay AID298 (DTP/NCI, 2004).

The experiment relates to MX-1 breast xenograft, intrarenal, nude mice, tumor weight. The experiment can be described thus: NCI In Vivo Anticancer Drug Screen. Data for tumor model Human Mammary Carcinoma MX-1 Xenograft (intrarenal inoculation) in NU/NU BALB/C (nude) mice. The note with it: endpoint: mean tumor weight change, higher = larger tumour. Summed up: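 Compounds were given to mice carrying transplanted tumors, and tumor size or survival was measured. Each value is the treated-group measurement (T) divided by the vehicle-treated control-group measurement (C).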
A general note: A xenograft is tissue or cells of one species grown in another, often human tumour cells in immunodeficient mice.

[1] abbreviates: dose: 150.0 mg/kg/injection, schedule: Q04DX003 (ip), vehicle: saline with Tween-80.
[2] abbreviates: dose: 300.0 mg/kg/injection, schedule: Q04DX003 (ip), vehicle: saline with Tween-80.
Setting [3] is: dose: 75.0 mg/kg/injection, schedule: Q04DX003 (sc), vehicle: water.

Values joined by “and” are separate entries in the source; they are usually repeats but may differ in a detail not shown here. Equal entries are not always repeated. Results filed as inconclusive are left out.

For the molecule `O=C(Nc1cccc(O)c1)C(Cl)=C(Cl)Cl`, the T/C reads like this: (dose: 6.25 mg/kg/injection, schedule: Q04DX003 (ip), vehicle: other) 66 % of control; (dose: 12.5 mg/kg/injection, schedule: Q04DX003 (ip), vehicle: DMSO) 112 % of control; (dose: 12.5 mg/kg/injection, schedule: Q04DX003 (ip), vehicle: other) 68 % of control; (dose: 25.0 mg/kg/injection, schedule: Q04DX003 (ip), vehicle: DMSO) 116 % of control; (dose: 25.0 mg/kg/injection, schedule: Q04DX003 (ip), vehicle: other) 45 % of control; (dose: 50.0 mg/kg/injection, schedule: Q04DX003 (ip), vehicle: DMSO) 47 % of control.

Turning to `NNC(=S)N/N=C/c1ccccn1`, the T/C runs as follows: (dose: 15.0 mg/kg/injection, schedule: Q04DX003 (sc), vehicle: saline with Tween-80) 116 % of control; (dose: 30.0 mg/kg/injection, schedule: Q04DX003 (sc), vehicle: saline with Tween-80) 96 % of control; (dose: 60.0 mg/kg/injection, schedule: Q04DX003 (sc), vehicle: saline with Tween-80) 123 % of control.

With `CC[PH+](CC)CC[S-].CC[PH+](CC)CC[S-].[Au+].[Au+]`, the T/C reads like this: (dose: 40.0 mg/kg/injection, schedule: Q04DX003 (sc), vehicle: Klucel (hydroxypropylcellulose) (HPC)) 87 % of control; (dose: 80.0 mg/kg/injection, schedule: Q04DX003 (sc), vehicle: Klucel (hydroxypropylcellulose) (HPC)) 69 % of control; (dose: 160.0 mg/kg/injection, schedule: Q04DX003 (sc), vehicle: Klucel (hydroxypropylcellulose) (HPC)) 55 % of control; (dose: 320.0 mg/kg/injection, schedule: Q04DX003 (sc), vehicle: Klucel (hydroxypropylcellulose) (HPC)) 80 % of control.

Turning to `O=C(O)CCCc1ccc(N(CCCl)CCCl)cc1`, the T/C by setting is: (dose: 12.0 mg/kg/injection, schedule: Q04DX003 (ip), vehicle: Klucel (hydroxypropylcellulose) (HPC)) 1 % of control and 4 % of control; (dose: 18.0 mg/kg/injection, schedule: Q04DX003 (ip), vehicle: Klucel (hydroxypropylcellulose) (HPC)) 4 % of control; (dose: 27.0 mg/kg/injection, schedule: Q04DX003 (ip), vehicle: Klucel (hydroxypropylcellulose) (HPC)) -55 % of control.

For the molecule `O=C1C2C3C=CC(C2C(=O)N1CO)C1C2C(=O)N(CO)C(=O)C2C31` (centres undefined), the T/C was 110 % of control (dose: 37.5 mg/kg/injection, schedule: Q04DX003 (ip), vehicle: water) and 71 % of control (dose: 75.0 mg/kg/injection, schedule: Q04DX003 (ip), vehicle: water).

As for `O=S(=O)(CCl)OCCCl`, the T/C was 90 % of control (dose: 25.0 mg/kg/injection, schedule: Q04DX003 (sc), vehicle: saline with Tween-80); 113 % of control (dose: 50.0 mg/kg/injection, schedule: Q04DX003 (sc), vehicle: saline with Tween-80); 95 % of control (dose: 100.0 mg/kg/injection, schedule: Q04DX003 (sc), vehicle: saline with Tween-80).

As to `COc1cccc2c1C(=O)c1c(O)c3c(c(O)c1C2=O)C[C@@](O)(/C(C)=N\O)C[C@@H]3OC1CC(N)C(O)C(C)O1` (some centres undefined), the T/C by setting is: (dose: 12.5 mg/kg/injection, schedule: Q04DX003 (sc), vehicle: saline) 64 % of control; (dose: 25.0 mg/kg/injection, schedule: Q04DX003 (sc), vehicle: saline) 58 % of control; (dose: 50.0 mg/kg/injection, schedule: Q04DX003 (sc), vehicle: saline) 23 % of control.

Take `Oc1ccc(/C=N/N=C/c2ccc(O)c(O)c2)cc1O`: the T/C runs as follows: (dose: 75.0 mg/kg/injection, schedule: Q04DX003 (ip), vehicle: saline with Tween-80) 68 % of control; under setting [1], 46 % of control; under setting [2], 78 % of control; (dose: 1200.0 mg/kg/injection, schedule: Q04DX003 (ip), vehicle: saline with Tween-80) 82 % of control.

Take `CC(=O)/C(=C\c1ccc(/C=C(\C(C)=O)C(=O)CCN(C)C)cc1)C(=O)CCN(C)C`: the T/C by setting is: (dose: 100.0 mg/kg/injection, schedule: Q04DX003 (ip), vehicle: saline with Tween-80) 122 % of control; (dose: 200.0 mg/kg/injection, schedule: Q04DX003 (ip), vehicle: saline with Tween-80) 90 % of control.

In the case of `CN=C(N)N/N=C(\C)c1ccc2sc3ccc(/C(C)=N/NC(N)=NC)cc3c2c1`, the T/C is 90 % of control under setting [1] and 59 % of control under setting [2].

For the molecule `C=C1C(O)C2OC3(CCC(/C=C/C(C)C4CC5(C)SC5C5(OC(CC(C)(O)C(=O)O)CCC5O)O4)O3)CCC2OC1C(O)CC(C)C1OC2(CCCCO2)CCC1C` (centres undefined), the T/C is, setting by setting: (dose: 5.0 micrograms/kg/injection, schedule: Q04DX003 (ip), vehicle: saline + alcohol) 92 % of control; (dose: 10.0 micrograms/kg/injection, schedule: Q04DX003 (ip), vehicle: saline + alcohol) 84 % of control; (dose: 40.0 micrograms/kg/injection, schedule: Q04DX003 (ip), vehicle: saline + alcohol) 56 % of control and 76 % of control.

For `O=C1C=C2C(=CCOC2O)O1` (centres undefined), the T/C was 87 % of control (dose: 1.0 mg/kg/injection, schedule: Q04DX003 (sc), vehicle: Klucel (hydroxypropylcellulose) (HPC)); 79 % of control (dose: 2.0 mg/kg/injection, schedule: Q04DX003 (sc), vehicle: Klucel (hydroxypropylcellulose) (HPC)); 59 % of control (dose: 4.0 mg/kg/injection, schedule: Q04DX003 (sc), vehicle: Klucel (hydroxypropylcellulose) (HPC)).

`NCCSC(C[N+](=O)[O-])c1ccccc1Cl` (centres undefined): the T/C is 86 % of control (dose: 25.0 mg/kg/injection, schedule: Q04DX003 (ip), vehicle: saline); 86 % of control (dose: 50.0 mg/kg/injection, schedule: Q04DX003 (ip), vehicle: saline); 85 % of control (dose: 100.0 mg/kg/injection, schedule: Q04DX003 (ip), vehicle: saline).

For the molecule `CCCCCCCC(=O)O[C@H]1[C@H]2[C@@H](CC1(C)C)C(=O)[C@]13O[C@H]1C(=O)[C@]1(CO1)[C@]23C`, the T/C was 100 % of control (dose: 5.0 mg/kg/injection, schedule: Q04DX003 (ip), vehicle: saline with Tween-80); 96 % of control (dose: 10.0 mg/kg/injection, schedule: Q04DX003 (ip), vehicle: saline with Tween-80); 80 % of control (dose: 20.0 mg/kg/injection, schedule: Q04DX003 (ip), vehicle: saline with Tween-80).

Take `ClCC[N+]12CC[N+](CCCl)(CC1)C2`: the T/C is 34 % of control under setting [3]; 23 % of control and 27 % of control (dose: 100.0 mg/kg/injection, schedule: Q01DX010 (sc), vehicle: saline with Tween-80); 18 % of control (dose: 150.0 mg/kg/injection, schedule: Q04DX003 (sc), vehicle: water); 16 % of control and 19 % of control (dose: 200.0 mg/kg/injection, schedule: Q01DX010 (sc), vehicle: saline with Tween-80); 3 % of control (dose: 300.0 mg/kg/injection, schedule: Q04DX003 (sc), vehicle: water).

As to `COc1cccc2c1C(=O)c1c(O)c3c(c(O)c1C2=O)CC(O)(/C(C)=N/NC(=O)CCCCC(=O)N/N=C(\C)C1(O)Cc2c(O)c4c(c(O)c2C(OC2CC(N)C(O)C(C)O2)C1)C(=O)c1c(OC)cccc1C4=O)CC3OC1CC(N)C(O)C(C)O1` (centres undefined), the T/C was 41 % of control (dose: 12.5 mg/kg/injection, schedule: Q04DX003 (sc), vehicle: water); 5 % of control (dose: 25.0 mg/kg/injection, schedule: Q04DX003 (sc), vehicle: water); -56 % of control (dose: 50.0 mg/kg/injection, schedule: Q04DX003 (sc), vehicle: water).

For the molecule `CNc1ncn(-c2c(C)cccc2C)c(=O)n1`, the T/C by setting is: under setting [1], 92 % of control and 97 % of control; under setting [2], 77 % of control; (dose: 600.0 mg/kg/injection, schedule: Q04DX003 (ip), vehicle: saline with Tween-80) 25 % of control.

For `C[n+]1c(/C=N/NC(N)=S)ccc2ccccc21`, the T/C (dose: 300.0 mg/kg/injection, schedule: Q04DX003 (sc), vehicle: saline with Tween-80) was 78 % of control.

Turning to `Nc1c(/C=C/c2cc3cc(C4=NCCN4)ccc3o2)[nH]c2cc(C3=NCCN3)ccc12`, the T/C is, setting by setting: (dose: 37.5 mg/kg/injection, schedule: Q04DX003 (ip), vehicle: Klucel (hydroxypropylcellulose) (HPC)) 80 % of control; (dose: 75.0 mg/kg/injection, schedule: Q04DX003 (ip), vehicle: Klucel (hydroxypropylcellulose) (HPC)) 103 % of control; (dose: 150.0 mg/kg/injection, schedule: Q04DX003 (ip), vehicle: Klucel (hydroxypropylcellulose) (HPC)) 40 % of control.

Consider `CNc1n[n+](-c2ccccc2)no1`, for which the T/C (dose: 18.25 mg/kg/injection, schedule: Q04DX003 (sc), vehicle: water) is 88 % of control; the T/C (dose: 37.5 mg/kg/injection, schedule: Q04DX003 (sc), vehicle: water) was 81 % of control; the T/C under setting [3] was 91 % of control.

Consider `COC12[C@@H]3N[C@@H]3CN1C1=C(C(=O)C(NCCSSCCNC3=C(C)C(=O)C4=C(C3=O)C(COC(N)=O)[C@]3(OC)C5N[C@@H]5CN43)=C(C)C1=O)[C@@H]2COC(N)=O` (some centres undefined), for which the T/C reads like this: (dose: 3.12 mg/kg/injection, schedule: Q04DX003 (ip), vehicle: DMSO) 24 % of control; (dose: 6.25 mg/kg/injection, schedule: Q04DX003 (ip), vehicle: DMSO) -41 % of control.
